Results: patent publication US20100267561A1, “HERBICIDAL PYRIDAZINONE DERIVATIVES” (priority 2007, published 2010)

What was measured:
Type in all cases: in vivo
[1] = test system: umbrella sedge (Cyperus difformis); assay: Test B flooded paddy test plant response
Summary of the method: (§1)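 Rice, umbrella sedge, ducksalad and barnyardgrass at 2-leaf stage; pots flooded to 3 cm, compounds applied into paddy water, depth held throughout. Greenhouse 13 to 15 days, then visual rating vs untreated controls on 0–100 scale (0 no effect, 100 complete control); dash means no test result.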

[2] = test system: barnyardgrass (Echinochloa crus-galli); assay: Test B flooded paddy test plant response
Summary of the method: as §1

rice (Oryza sativa) = assay: Test B flooded paddy test plant response
Summary of the method: as §1

[3] = test system: ducksalad (Heteranthera limosa); assay: Test B flooded paddy test plant response
Summary of the method: as §1

[4] = test system: large crabgrass (Digitaria sanguinalis); assay: Test B pre-/postemergence plant response
From the text: (§2) Seeds of plant species selected from blackgrass (Alopecurus myosuroides), downy bromegrass (Bromus tectorum), green foxtail (Setaria viridis), Italian ryegrass (Lolium multiflorum), wheat (Triticum aestivum), wild oat (Avena fatua), catchweed bedstraw (Galium aparine), bermudagrass (Cynodon dactylon), surinam grass (Brachiaria decumbens), cocklebur (Xanthium strumarium), corn (Zea mays), large crabgrass (Digitaria sanguinalis), woolly cupgrass (Eriochloa villosa), giant foxtail (Setaria faberii), goosegrass (Eleusine indica), johnsongrass (Sorghum halepense), kochia (Kochia scoparia), lambsquarters (Chenopodium album), morningglory (Ipomoea coccinea), eastern black (E.B.) nightshade (Solanum ptycanthum), yellow nutsedge (Cyperus esculentus), pigweed (Amaranthus retroflexus), common ragweed (Ambrosia elation), Russian thistle (Salsola iberica), soybean (Glycine max), common (oilseed) sunflower (Helianthus annuus), and velvetleaf (Abutilon theophrasti) were planted and treated preemergence with test chemicals formulated in a non-phytotoxic solvent mixture which included a surfactant.
(§3) At the same time, plants selected from these crop and weed species and also winter barley (Hordeum vulgare), canarygrass (Phalaris minor), chickweed (Stellaria media) and windgrass (Apera spica-venti) were treated with postemergence applications of some of the test chemicals formulated in the same manner. Plants ranged in height from 2 to 18 cm (1- to 4-leaf stage) for postemergence treatments.
(§4) Plant species in the flooded paddy test consisted of rice (Oryza sativa), umbrella sedge (Cyperus difformis), ducksalad (Heteranthera limosa) and barnyardgrass (Echinochloa crus-galli) grown to the 2-leaf stage for testing. At time of treatment, test pots were flooded to 3 cm above the soil surface, treated by application of test compounds directly to the paddy water, and then maintained at that water depth for the duration of the test. Treated plants and controls were maintained in a greenhouse for 13 to 15 days, after which time all species were compared to controls and visually evaluated. Plant response ratings, summarized in Table B, are based on a scale of 0 to 100 where 0 is no effect and 100 is complete control. A dash (-) response means no test result.

[5] = test system: Italian ryegrass (Lolium multiflorum); assay: Test B pre-/postemergence plant response
From the text: as §2, §3, §4

[6] = test system: cocklebur (Xanthium strumarium); assay: Test B pre-/postemergence plant response
From the text: as §2, §3, §4

soybean (Glycine max) = assay: Test B pre-/postemergence plant response
From the text: as §2, §3, §4

[7] = test system: velvetleaf (Abutilon theophrasti); assay: Test B pre-/postemergence plant response
From the text: as §2, §3, §4

[8] = test system: common ragweed (Ambrosia elation); assay: Test B pre-/postemergence plant response
From the text: as §2, §3, §4

[9] = test system: bermudagrass (Cynodon dactylon); assay: Test B pre-/postemergence plant response
From the text: as §2, §3, §4

[10] = test system: goosegrass (Eleusine indica); assay: Test B pre-/postemergence plant response
From the text: as §2, §3, §4

[11] = test system: lambsquarters (Chenopodium album); assay: Test B pre-/postemergence plant response
From the text: as §2, §3, §4

[12] = Flood (flooded paddy test), 62 g ai/ha, scale 0 to 100, 0 no effect, 100 complete control
[13] = Flood (flooded paddy test), 125 g ai/ha, scale 0 to 100, 0 no effect, 100 complete control
[14] = Flood (flooded paddy test), 250 g ai/ha, scale 0 to 100, 0 no effect, 100 complete control
[15] = Flood, 31 g ai/ha, scale 0 to 100
[16] = Postemergence, 16 g ai/ha, scale 0 to 100
[17] = Postemergence, 31 g ai/ha, scale 0 to 100, 0 no effect, 100 complete control
[18] = Postemergence, 62 g ai/ha, scale 0 to 100
[19] = Postemergence, 125 g ai/ha, scale 0 to 100
[20] = Preemergence, 16 g ai/ha, scale 0 to 100 (0 no effect, 100 complete control)
[21] = Preemergence, 31 g ai/ha, 0 to 100 scale, 0 no effect, 100 complete control
[22] = Preemergence, 62 g ai/ha, scale 0 to 100
[23] = Preemergence, 125 g ai/ha, scale 0 to 100
[24] = 8 g ai/ha, postemergence, 0-100 scale
[25] = Postemergence, 31 g ai/ha, scale 0 to 100
[26] = Postemergence, 62 g ai/ha, scale 0 to 100, 0 no effect, 100 complete control

CCc1cc(-c2ccc(C(F)(F)F)cc2)nn1-c1c(OC(=O)OC(C)C)cnn(C)c1=O [Compound 12]
Plant response rating, Sedge, Umbrella [1, 12]: 40
Plant response rating, Sedge, Umbrella [1, 13]: 60
Plant response rating, Sedge, Umbrella [1, 14]: 60
Plant response rating, Sedge, Umbrella [1, 15]: 0
Plant response rating, Barnyardgrass [2, 12]: 30
Plant response rating, Barnyardgrass [2, 13]: 60
Plant response rating, Barnyardgrass [2, 14]: 80
Plant response rating, Barnyardgrass [2, 15]: 0
Plant response rating, Rice (rice (Oryza sativa); [12]): 20
Plant response rating, Rice (rice (Oryza sativa); [13]): 70
Plant response rating, Rice (rice (Oryza sativa); [14]): 80
Plant response rating, Rice (rice (Oryza sativa); [15]): 0
Plant response rating, Ducksalad [3, 12]: 0
Plant response rating, Ducksalad [3, 13]: 40
Plant response rating, Ducksalad [3, 14]: 50
Plant response rating, Ducksalad [3, 15]: 0
Plant response rating, Crabgrass, Large [4, 16]: 100
Plant response rating, Crabgrass, Large [4, 17]: 100
Plant response rating, Crabgrass, Large [4, 18]: 100
Plant response rating, Crabgrass, Large [4, 19]: 100
Plant response rating, Crabgrass, Large [4, 20]: 100
Plant response rating, Crabgrass, Large [4, 21]: 100
Plant response rating, Crabgrass, Large [4, 22]: 100
Plant response rating, Crabgrass, Large [4, 23]: 100
Plant response rating, Ryegrass, Italian [5, 16]: 100
Plant response rating, Ryegrass, Italian [5, 17]: 100
Plant response rating, Ryegrass, Italian [5, 18]: 100
Plant response rating, Ryegrass, Italian [5, 19]: 100
Plant response rating, Ryegrass, Italian [5, 20]: 90
Plant response rating, Ryegrass, Italian [5, 21]: 95
Plant response rating, Ryegrass, Italian [5, 22]: 100
Plant response rating, Ryegrass, Italian [5, 23]: 100
Plant response rating, Cocklebur [6, 16]: 0
Plant response rating, Cocklebur [6, 17]: 0
Plant response rating, Cocklebur [6, 18]: 0
Plant response rating, Cocklebur [6, 19]: 0
Plant response rating, Cocklebur [6, 20]: 0
Plant response rating, Cocklebur [6, 21]: 0
Plant response rating, Cocklebur [6, 22]: 0
Plant response rating, Cocklebur [6, 23]: 0
Plant response rating, Soybean (soybean (Glycine max); [16]): 0
Plant response rating, Soybean (soybean (Glycine max); [17]): 0
Plant response rating, Soybean (soybean (Glycine max); [18]): 0
Plant response rating, Soybean (soybean (Glycine max); [19]): 0
Plant response rating, Soybean (soybean (Glycine max); [20]): 0
Plant response rating, Soybean (soybean (Glycine max); [21]): 0
Plant response rating, Soybean (soybean (Glycine max); [22]): 0
Plant response rating, Soybean (soybean (Glycine max); [23]): 0
Plant response rating, Velvetleaf [7, 16]: 0
Plant response rating, Velvetleaf [7, 17]: 0
Plant response rating, Velvetleaf [7, 18]: 0
Plant response rating, Velvetleaf [7, 19]: 30
Plant response rating, Velvetleaf [7, 20]: 0
Plant response rating, Velvetleaf [7, 21]: 0
Plant response rating, Velvetleaf [7, 22]: 0
Plant response rating, Velvetleaf [7, 23]: 0
Plant response rating, Ragweed [8, 16]: 0
Plant response rating, Ragweed [8, 17]: 0
Plant response rating, Ragweed [8, 18]: 0
Plant response rating, Ragweed [8, 19]: 0
Plant response rating, Ragweed [8, 20]: 0
Plant response rating, Ragweed [8, 21]: 0
Plant response rating, Ragweed [8, 22]: 0
Plant response rating, Ragweed [8, 23]: 0
Plant response rating, Bermudagrass [9, 16]: 100
Plant response rating, Bermudagrass [9, 17]: 100
Plant response rating, Bermudagrass [9, 18]: 100
Plant response rating, Bermudagrass [9, 19]: 100
Plant response rating, Bermudagrass [9, 20]: 100
Plant response rating, Bermudagrass [9, 21]: 100
Plant response rating, Bermudagrass [9, 22]: 100
Plant response rating, Bermudagrass [9, 23]: 100
Plant response rating, Goosegrass [10, 16]: 100
Plant response rating, Goosegrass [10, 17]: 100
Plant response rating, Goosegrass [10, 18]: 100
Plant response rating, Goosegrass [10, 19]: 100
Plant response rating, Goosegrass [10, 20]: 40
Plant response rating, Goosegrass [10, 21]: 98
Plant response rating, Goosegrass [10, 22]: 100
Plant response rating, Goosegrass [10, 23]: 100
Plant response rating, Lambsquarters [11, 16]: 0
Plant response rating, Lambsquarters [11, 17]: 0
Plant response rating, Lambsquarters [11, 18]: 0
Plant response rating, Lambsquarters [11, 19]: 40
Plant response rating, Lambsquarters [11, 20]: 0
Plant response rating, Lambsquarters [11, 21]: 0
Plant response rating, Lambsquarters [11, 23]: 0

Cc1nn(C)c(=O)c(-n2nc(-c3ccc(Cl)cc3)cc2Cl)c1O [Compound 59]
Plant response rating, Sedge, Umbrella [1, 12]: 0
Plant response rating, Sedge, Umbrella [1, 14]: 30
Plant response rating, Barnyardgrass [2, 12]: 0
Plant response rating, Barnyardgrass [2, 14]: 50
Plant response rating, Rice (rice (Oryza sativa); [12]): 10
Plant response rating, Rice (rice (Oryza sativa); [14]): 25
Plant response rating, Ducksalad [3, 12]: 0
Plant response rating, Ducksalad [3, 14]: 20
Crabgrass, Large plant response rating [4, 24]: 20
Plant response rating, Crabgrass, Large [4, 16]: 45
Plant response rating, Crabgrass, Large [4, 25]: 55
Plant response rating, Crabgrass, Large [4, 26]: 60
Ryegrass, Italian plant response rating [5, 24]: 80
Plant response rating, Ryegrass, Italian [5, 16]: 80
Plant response rating, Ryegrass, Italian [5, 25]: 85
Plant response rating, Ryegrass, Italian [5, 26]: 85
Cocklebur plant response rating [6, 24]: 0
Plant response rating, Cocklebur [6, 16]: 0
Plant response rating, Cocklebur [6, 25]: 0
Plant response rating, Cocklebur [6, 26]: 0
Soybean plant response rating (soybean (Glycine max); [24]): 0
Plant response rating, Soybean (soybean (Glycine max); [16]): 0
Plant response rating, Soybean (soybean (Glycine max); [25]): 0
Plant response rating, Soybean (soybean (Glycine max); [26]): 0
Velvetleaf plant response rating [7, 24]: 0
Plant response rating, Velvetleaf [7, 16]: 0
Plant response rating, Velvetleaf [7, 25]: 0
Plant response rating, Velvetleaf [7, 26]: 0
Ragweed plant response rating [8, 24]: 0
Plant response rating, Ragweed [8, 16]: 0
Plant response rating, Ragweed [8, 25]: 0
Plant response rating, Ragweed [8, 26]: 0
Bermudagrass plant response rating [9, 24]: 0
Plant response rating, Bermudagrass [9, 16]: 0
Plant response rating, Bermudagrass [9, 25]: 0
Plant response rating, Bermudagrass [9, 26]: 20
Goosegrass plant response rating [10, 24]: 0
Plant response rating, Goosegrass [10, 16]: 0
Plant response rating, Goosegrass [10, 25]: 0
Plant response rating, Goosegrass [10, 26]: 0
Lambsquarters plant response rating [11, 24]: 0
Plant response rating, Lambsquarters [11, 16]: 0
Plant response rating, Lambsquarters [11, 25]: 0
Plant response rating, Lambsquarters [11, 26]: 0
